Results reported in patent US12459974B2, “Bicyclic peptide ligands specific for Nectin-4” (priority 2018, dated 2025).
*1 amine or outer side, *2 acyl side, *3 side chain or, on linkers, in order; H or OH if unused. Where a SMILES comes first, the peptide text is derived from it. Bridges are numbered along the chain shown (N, C = ends). TATA = O=C(CC[*:1])N1CN(C(=O)CC[*:2])CN(C(=O)CC[*:3])C1

target: T1, human Nectin-4 (Homo sapiens, UniProt Q96NY8); experiment: Nectin-4 competition binding assay (fluorescence polarisation); details: not given
T1 sequence (Q96NY8 32-510): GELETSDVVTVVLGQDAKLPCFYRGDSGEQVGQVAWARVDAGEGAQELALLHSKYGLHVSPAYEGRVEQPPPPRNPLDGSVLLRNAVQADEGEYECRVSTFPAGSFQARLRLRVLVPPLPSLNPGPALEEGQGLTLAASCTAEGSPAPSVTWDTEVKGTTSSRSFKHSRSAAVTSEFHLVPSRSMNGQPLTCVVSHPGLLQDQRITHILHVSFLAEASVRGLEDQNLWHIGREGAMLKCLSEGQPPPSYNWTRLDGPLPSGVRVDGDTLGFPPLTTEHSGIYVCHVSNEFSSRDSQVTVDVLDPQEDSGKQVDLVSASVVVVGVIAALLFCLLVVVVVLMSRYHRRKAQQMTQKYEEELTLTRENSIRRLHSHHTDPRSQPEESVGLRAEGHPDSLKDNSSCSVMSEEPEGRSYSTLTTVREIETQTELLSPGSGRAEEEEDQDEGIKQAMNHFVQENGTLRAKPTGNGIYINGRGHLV
Method: Peptides were diluted to an appropriate concentration in assay buffer as described in the direct binding assay with a maximum of 5% DMSO, then serially diluted 1 in 2. Five μL of diluted peptide was added to the plate followed by 10 μL of human Nectin-4, then 10 μL fluorescent peptide added. Measurements were conducted as for the direct binding assay, however the gain was determined prior to the first measurement. Data analysis was in Systat Sigmaplot version 12.0 where the mP values were fit to a user defined cubic equation to generate a Ki value: • f=ymin+(ymax−ymin)/Lig*((Lig*((2*((Klig+Kcomp+Lig+Comp-Prot*c)^2-3*(Kcomp*(Lig-Prot*c)+Klig*(Comp-Prot*c)+Klig*Kcomp))^0.5*COS(ARCCOS((−2*(Klig+Kcomp+Lig+Comp-Prot*c)^3+9*(Klig+Kcomp+Lig+Comp-Prot*c)*(Kcomp*(Lig-Prot*c)+Klig*(Comp-Prot*c)+Klig*Kcomp)−27*(−1*Klig*Kcomp*Prot*c)/(2*((((Klig+Kcomp+Lig+Comp-Prot*c)^2−3*(Kcomp*(Lig-Prot*c)+Klig*(Comp-Prot*c)+Klig*Kcomp))^3)^0.5)))/3))−(Klig+Kcomp+Lig+Comp-Prot*c)))/((3*Klig)+((2*((Klig+Kcomp+Lig+Comp-Prot*c)^2−3*(Kcomp*(Lig-Prot*c)+Klig*(Comp-Prot*c)+Klig*Kcomp))^0.5*COS (ARCCOS ((−2*(Klig+Kcomp+Lig+Comp-Prot*c)^3+9*(Klig+Kcomp+Lig+Comp-Prot*c)*(Kcomp*(Lig-Prot*c)+Klig*(Comp-Prot*c)+Klig*Kcomp)-27*(−1*Klig*Kcomp*Prot*c))/(2*((((Klig+Kcomp+Lig+Comp-Prot*c)^2-3*(Kcomp*(Lig-Prot*c)+Klig*(Comp-Prot+c)+Klig*Kcomp))^3)^0.5))/3)−(Klig+Kcomp+Lig+Comp-Prot*c)))).
“Lig”, “KLig” and “Prot” were all defined values relating to: fluorescent peptide concentration, the Kd of the fluorescent peptide and Nectin concentration respectively.

SMILES | Ki [µM]
CC[C@H](C)[C@@H]1NC(=O)[C@@H]2CCCN2C(=O)[C@H](Cc2c[nH]c3ccccc23)NC(=O)[C@H](CO)NC(=O)[C@H](Cc2c[nH]c3ccccc23)NC(=O)[C@H](CC(=O)O)NC(=O)[C@H](CCCCN)NC(=O)[C@H](CCSC)NC(=O)[C@@H]2CSCCC(=O)N3CN(CN(C3)C(=O)CCSC[C@H](NC(C)=O)C(=O)N3CCC[C@H]3C(=O)N[C@@H](Cc3ccccc3)C(=O)NCC(=O)N2)C(=O)CCSC[C@@H](C(N)=O)NC(=O)[C@H](Cc2c[nH]c3ccccc23)NC1=O [BCY7661, Ac-(SEQ ID NO: 15)] (Ac-CPFGCMKDWSWPIWC-NH2; linker 1-5-15 via TATA; C-terminus assumed) | 0.0294

same assay, conditions: competition with fluorescent peptide SEQ ID NO: 217; read-out: Ki

SMILES | Ki [µM]
CC[C@H](C)[C@@H]1NC(=O)[C@H](CCCNC(=N)N)NC(=O)[C@H](CC(N)=O)NC(=O)[C@@H]2CSCCC(=O)N3CN(CN(C3)C(=O)CCSC[C@H](NC(=O)[C@H](Cc3c[nH]c4ccccc34)NC(=O)[C@H](C)NC(=O)[C@H](CCC(N)=O)NC(C)=O)C(=O)N[C@@H](C)C(=O)N3CCC[C@H]3C(=O)N[C@@H](CC(C)C)C(=O)N[C@@H](CO)C(=O)N[C@@H](CC(=O)O)C(=O)N[C@@H](Cc3ccc(O)cc3)C(=O)N[C@@H](Cc3c[nH]c4ccccc34)C(=O)N2)C(=O)CCSC[C@@H](C(N)=O)NC1=O [BCY7623, Ac-QAW-(SEQ ID NO: 34)] (Ac-QAWCAPLSDYWCNRIC-NH2; linker 4-12-16 via TATA; C-terminus assumed) | 0.021
CC[C@H](C)[C@@H]1NC(=O)[C@@H]2CCCN2C(=O)[C@H](CC(=O)O)NC(=O)[C@H](CO)NC(=O)[C@H](Cc2c[nH]c3ccccc23)NC(=O)[C@H](CC(N)=O)NC(=O)[C@H](CCCCN)NC(=O)[C@H](CCSC)NC(=O)[C@@H]2CSCCC(=O)N3CN(CN(C3)C(=O)CCSC[C@H](NC(C)=O)C(=O)N3CCC[C@H]3C(=O)N[C@@H](Cc3ccccc3)C(=O)NCC(=O)N2)C(=O)CCSC[C@@H](C(N)=O)NC(=O)[C@H](Cc2c[nH]c3ccccc23)NC1=O [BCY7540, Ac-(SEQ ID NO: 8)] (Ac-CPFGCMKNWSDPIWC-NH2; linker 1-5-15 via TATA; C-terminus assumed) | 0.357
CC[C@H](C)[C@@H]1NC(=O)[C@@H]2CCCN2C(=O)[C@H](Cc2c[nH]c3ccccc23)NC(=O)[C@H](CO)NC(=O)[C@H](Cc2c[nH]c3ccccc23)NC(=O)CNC(=O)[C@H](CCCCN)NC(=O)[C@H](CCSC)NC(=O)[C@@H]2CSCCC(=O)N3CN(CN(C3)C(=O)CCSC[C@H](NC(=O)[C@H](C)N)C(=O)N3CCC[C@H]3C(=O)N[C@@H](Cc3ccccc3)C(=O)NCC(=O)N2)C(=O)CCSC[C@@H](C(=O)N[C@@H](CC(C)C)C(=O)N[C@@H](CCCCN)C(=O)N[C@@H](CC(=O)O)C(N)=O)NC(=O)[C@H](Cc2c[nH]c3ccccc23)NC1=O [BCY3395, A-(SEQ ID NO: 53)-LKD] (H-ACPFGCMKGWSWPIWCLKD-NH2; linker 2-6-16 via TATA; N-terminus and C-terminus assumed) | 0.0174
CC[C@H](C)[C@@H]1NC(=O)[C@@H]2CCCN2C(=O)[C@H](Cc2c[nH]c3ccccc23)NC(=O)[C@H](CO)NC(=O)[C@H](Cc2c[nH]c3ccccc23)NC(=O)[C@H](Cc2c[nH]cn2)NC(=O)[C@H](CCC(=O)O)NC(=O)[C@H](CCC(N)=O)NC(=O)[C@@H]2CSCCC(=O)N3CN(CN(C3)C(=O)CCSC[C@H](NC(=O)[C@H](C)N)C(=O)N3CCC[C@H]3C(=O)N[C@@H](Cc3ccccc3)C(=O)NCC(=O)N2)C(=O)CCSC[C@@H](C(=O)N[C@H](C(=O)N[C@H](C(=O)N[C@@H](C)C(N)=O)[C@@H](C)O)[C@@H](C)O)NC(=O)[C@H](Cc2c[nH]c3ccccc23)NC1=O [BCY3396, A-(SEQ ID NO: 54)-TTA] (H-ACPFGCQEHWSWPIWCTTA-NH2; linker 2-6-16 via TATA; N-terminus and C-terminus assumed) | 0.102
CC[C@H](C)[C@@H]1NC(=O)[C@@H]2CCCN2C(=O)[C@H](Cc2c[nH]c3ccccc23)NC(=O)[C@H](CO)NC(=O)[C@H](Cc2c[nH]c3ccccc23)NC(=O)[C@H](CC(=O)O)NC(=O)[C@H](CCCCN)NC(=O)[C@H](CCSC)NC(=O)[C@@H]2CSCCC(=O)N3CN(CN(C3)C(=O)CCSC[C@H](NC(=O)[C@H](CC(N)=O)NC(=O)[C@H](CC(=O)O)NC(=O)[C@@H](N)CO)C(=O)N3CCC[C@H]3C(=O)N[C@@H](Cc3ccccc3)C(=O)NCC(=O)N2)C(=O)CCSC[C@@H](C(=O)N[C@@H](C)C(N)=O)NC(=O)[C@H](Cc2c[nH]c3ccccc23)NC1=O [BCY3387, SDN-(SEQ ID NO: 15)-A] (H-SDNCPFGCMKDWSWPIWCA-NH2; linker 4-8-18 via TATA; N-terminus and C-terminus assumed) | 0.234
CC[C@H](C)[C@@H]1NC(=O)[C@@H]2CCCN2C(=O)[C@H](Cc2c[nH]c3ccccc23)NC(=O)[C@H](CO)NC(=O)[C@H](Cc2c[nH]c3ccccc23)NC(=O)[C@H](CC(N)=O)NC(=O)[C@H](CCCCNC(=N)N)NC(=O)[C@H](CCSC)NC(=O)[C@@H]2CSCCC(=O)N3CN(CN(C3)C(=O)CCSC[C@H](NC(C)=O)C(=O)N3CCC[C@H]3C(=O)N[C@@H](Cc3ccccc3)C(=O)NCC(=O)N2)C(=O)CCSC[C@@H](C(N)=O)NC(=O)[C@H](Cc2c[nH]c3ccccc23)NC1=O [BCY7660, Ac-(SEQ ID NO: 59)] | 0.0262
CC[C@H](C)[C@@H]1NC(=O)[C@@H]2CCCN2C(=O)[C@H]([C@@H](C)O)NC(=O)[C@H](CO)NC(=O)[C@H](Cc2c[nH]c3ccccc23)NC(=O)[C@H](CCCCN)NC(=O)[C@H](CCCCNC(=N)N)NC(=O)[C@H](CCSC)NC(=O)[C@@H]2CSCCC(=O)N3CN(CN(C3)C(=O)CCSC[C@H](NC(C)=O)C(=O)N3CCC[C@H]3C(=O)N[C@@H](Cc3ccccc3)C(=O)N[C@H](CC(=O)O)C(=O)N2)C(=O)CCSC[C@@H](C(N)=O)NC(=O)[C@H](Cc2c[nH]c3ccccc23)NC1=O [BCY7822, Ac-(SEQ ID NO: 122)] | 0.027
CC[C@H](C)[C@@H]1NC(=O)[C@H](CCCNC(=N)N)NC(=O)[C@H](CC(N)=O)NC(=O)[C@@H]2CSCCC(=O)N3CN(CN(C3)C(=O)CCSC[C@H](NC(=O)[C@H](Cc3c[nH]c4ccccc34)NC(=O)[C@H](CCCCN)NC(=O)[C@H](CCC(N)=O)NC(C)=O)C(=O)N[C@@H](C)C(=O)N3CCC[C@H]3C(=O)N[C@@H](CC(C)C)C(=O)N[C@@H](C)C(=O)N[C@@H](CC(=O)O)C(=O)N[C@@H](Cc3ccc(O)cc3)C(=O)N[C@@H](Cc3c[nH]c4ccccc34)C(=O)N2)C(=O)CCSC[C@@H](C(N)=O)NC1=O [BCY7627, Ac-QKW-(SEQ ID NO: 104)] (Ac-QKWCAPLADYWCNRIC-NH2; linker 4-12-16 via TATA; C-terminus assumed) | 0.101
CC[C@H](C)[C@H]1C(=O)N[C@@H](Cc2c[nH]c3ccccc23)C(=O)N[C@H](C(N)=O)CSCCC(=O)N2CN3CN(C2)C(=O)CCSC[C@H](NC(C)=O)C(=O)N2CCC[C@H]2C(=O)N[C@@H](Cc2ccccc2)C(=O)N[C@H](CC(=O)O)C(=O)N[C@@H](CSCCC3=O)C(=O)N[C@@H](CCSC)C(=O)N[C@@H](CCCCNC(=N)N)C(=O)N[C@@H](CC(N)=O)C(=O)N[C@@H](Cc2c[nH]c3ccccc23)C(=O)N[C@@H](CO)C(=O)N[C@@H]([C@@H](C)O)C(=O)N2CCC[C@H]2C(=O)N1C [BCY8158, Ac-(SEQ ID NO: 176)] | 0.177
